In data set [1] the test system is melanoma cell line B16/F10. Description: Drug sensitivity in an in vitro tumor model. In kind it is cell-based. Conditions: vs cisplatin and 5-FU, even at 0.1 μg/mL.
Source text: The B16/F10 cells were cultivated in the presence of different concentrations of DOX, cisplatin and 5-FU.
The test system of data set [2] is melanoma cell line B16/F10 tumors.

“And” between values parts separate entries of the source, which are not always exact repeats. Equal entries are not always repeated. Structures can show the parent of a compound that is named as a salt. Where two headings read alike, the source gives them in different places.

For `COc1cccc2c1C(=O)c1c(O)c3c(c(O)c1C2=O)C[C@@](O)(C(=O)CO)C[C@@H]3O[C@H]1C[C@H](N)[C@H](O)[C@H](C)O1` [DOX, doxorubicin], the “inhibitory effect on the cell culture” value in data set [1] is reported as “strongest inhibitory effect”.
On to `COc1cccc2c1C(=O)c1c(O)c3c(c(O)c1C2=O)C[C@@](O)(C(=O)CO)C[C@@H]3O[C@H]1C[C@H](N)[C@H](O)[C@H](C)O1` [Bolus Dox, doxorubicin hydrochloride], for which, in data set [2] (mouse, in vivo), the “Number of Mice Survived, 28 days” value was determined as 8 and the “early death after injection” value is listed as “did not produce early death”. Besides, the “Number of Mice Survived, 42 days” value in data set [2] (mouse, in vivo, hydrochloride) was 5 and 3. In data set [2] (treatment injected Day 3 (3d)), the “Tumor Volume After Tumor Injection, 28 days” value turned out to be 1218.9 ± 304.1 mm^3 and the “Tumor Volume After Tumor Injection, 42 days” value is 3942.5 ± 1818 mm^3. In data set [2] (treatment injected Day 7 (7d)), the “Tumor Volume After Tumor Injection, 28 days” value was found to be 1661.2 ± 301.8 mm^3 and the “Tumor Volume After Tumor Injection, 42 days” value was determined as 4394.3 ± 741.3 mm^3.

Source of the values: US6800672B2, “Biodegradable compositions comprising poly(cycloaliphatic phosphoester) compounds, articles, and methods for using the same” (Guilford Pharmaceuticals, Inc., priority 1997, dated 2004).
